{"source": "patent US7135494B2", "about": "“Antitumoral carbazoles” (Pharma Mar, S.A., priority 2000, dated 2006)", "assay_type_in_all_cases": "cell-based", "key": {"Melanoma (MEL-28)": {"system": "Melanoma (MEL-28)", "assay": "SRB colorimetric assay of cell growth and viability, MEL-28", "conditions": "Homo sapiens, SK-MEL-28, 24 wells/16 mm, 10,000 cells/72 h, read-out: IC50 (concentration that causes 50% growth inhibition)", "procedure": "(§1) Biological tests were carried out on coproverdine (the compound of Example 1 of the present application). A colorimetric type of assay, using sulforhodamine B (SRB) reaction, was used to provide a quantitative measurement of cell growth and viability. The technique described by Skehan, et al., J Natl. Cancer Inst., 1990, 82, 1107, was followed. The reader is also referred to the following references: • Faircloth et al. Journal of Tissue and Culture Methods, 1988, 11, 201. • Monks et al. Articles, 1991, 83, 757. • Mosmann et al. Journal of Immunological Methods, 1983, 65, 55.\n(§2) Further biological tests were carried out on coproverdine using similar methods. The results are given using the following cellular response parameters: GI=growth inhibition, TGI=total growth inhibition (cytostatic effect) and LC=cell killing (cytotoxic effect)."}, "P388 leukemia cell line": {"system": "P388 leukemia cell line", "assay": "SRB colorimetric assay of cell growth and viability, P388", "conditions": "Mus musculus", "procedure": "as §1, §2"}, "Colon (HT-29)": {"system": "Colon (HT-29)", "assay": "SRB colorimetric assay of cell growth and viability, HT-29", "procedure": "as §1, §2"}, "Prostate (DU-145)": {"system": "Prostate (DU-145)", "assay": "SRB colorimetric assay of cell growth and viability, DU-145", "conditions": "Homo sapiens, 24 wells/16 mm, 10,000 cells/72 h, read-out: IC50 (concentration that causes 50% growth inhibition)", "procedure": "as §1, §2"}, "Lung (A-549)": {"system": "Lung (A-549)", "assay": "SRB colorimetric assay of cell growth and viability, A-549", "procedure": "as §1, §2"}, "[1]": {"conditions": "96 wells/9 mm, 5,000 cells/48 h"}}, "note": "Where two headings read alike, the source gives them in different places.", "data": [{"compound": "COC(=O)c1cccc2c3c(n(O)c12)C(O)(C=O)C=CC3=O", "note": "(stereo not drawn) [coproverdine, 8-formyl-8,9-dihydroxy-5-oxo-8,9-dihydro-5H-carbazole-1-carboxylic acid methyl ester]", "values": [{"measurement": "IC50", "setting": "Melanoma (MEL-28)", "result": 0.3, "unit": "µM"}, {"measurement": "IC50", "setting": "P388 leukemia cell line; P388, Leukemia (P-388), 24 wells/16 mm, 10,000 cells/72 h, read-out: IC50 (concentration that causes 50% growth inhibition)", "result": 1.6, "unit": "µM"}, {"measurement": "IC50", "setting": "P388 leukemia cell line; P388 leukemia cell line, first test, read-out: IC50", "result": 0.95, "unit": "mg/L"}, {"measurement": "TGI (total growth inhibition, cytostatic effect)", "setting": "Colon (HT-29); [1]", "result": 16, "unit": "µM"}, {"measurement": "IC50", "setting": "Colon (HT-29); Homo sapiens, 24 wells/16 mm, 10,000 cells/72 h, read-out: IC50 (concentration that causes 50% growth inhibition)", "result": 0.3, "unit": "µM"}, {"measurement": "GI50", "setting": "Colon (HT-29); Homo sapiens, 96 wells/9 mm, 5,000 cells/48 h, read-out: GI50 (50% growth inhibition with correction for cell OD at time zero)", "result": 6, "unit": "µM"}, {"measurement": "CC50", "setting": "Colon (HT-29); Homo sapiens, 96 wells/9 mm, 5,000 cells/48 h, read-out: LC50 (50% cell killing, cytotoxic effect)", "result": 50, "unit": "µM"}, {"measurement": "IC50", "setting": "Prostate (DU-145)", "result": 0.3, "unit": "µM"}, {"measurement": "TGI (total growth inhibition, cytostatic effect)", "setting": "Lung (A-549); [1]", "result": 15, "unit": "µM"}, {"measurement": "IC50", "setting": "Lung (A-549); Homo sapiens, A549, 24 wells/16 mm, 10,000 cells/72 h, read-out: IC50 (concentration that causes 50% growth inhibition)", "result": 0.3, "unit": "µM"}, {"measurement": "GI50", "setting": "Lung (A-549); Homo sapiens, A549, 96 wells/9 mm, 5,000 cells/48 h, read-out: GI50 (50% growth inhibition with correction for cell OD at time zero)", "result": 7, "unit": "µM"}, {"measurement": "CC50", "setting": "Lung (A-549); Homo sapiens, A549, 96 wells/9 mm, 5,000 cells/48 h, read-out: LC50 (50% cell killing, cytotoxic effect)", "result": 50, "unit": "µM"}]}]}
